Data taken from patent USRE48335E1, “Polymyxin derivatives as antimicrobial compounds” (priority 2014, dated 2020).
Values after ≈ are worked out from the molar mass of the structure shown. Positions of bridges follow the written chain, without caps; N, C: chain ends. Non-standard residues stand in square brackets, D forms with d. Residues, ends and D or L forms follow the SMILES beside them. *: point of attachment. Benzoyl(3-CF3) = O=C(c1cccc(C(F)(F)F)c1)*; X37 = O=C(c1ccc(C(F)(F)F)cc1F)*; Octanoyl = CCCCCCCC(=O)*; Orn = NCCC[C@H](N)C(=O)O; Dab = NCC[C@H](N)C(=O)O; Abu = CC[C@H](N)C(=O)O; Dap = NC[C@H](N)C(=O)O

How the values were obtained:
Acinetobacter baumannii = test system: Acinetobacter baumannii
Outline: (§1)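 MICs were determined for the lipopeptides, tested as trifluoroacetic acid salts, by broth microdilution in cation-adjusted Mueller-Hinton broth following CLSI standards (M100-S18). Polymyxin B sulphate served as the control.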

Enterobacter cloacae = test system: Enterobacter cloacae
Outline: as §1

Klebsiella pneumoniae = test system: Klebsiella pneumoniae
Outline: as §1

Pseudomonas aeruginosa = test system: Pseudomonas aeruginosa
Outline: as §1

Row | SMILES | MIC (Acinetobacter baumannii) [µg/mL] | MIC (Klebsiella pneumoniae) [µg/mL] | MIC (Pseudomonas aeruginosa) [µg/mL] | Minimum inhibitory concentration (MIC), Ab ATCC 17978 (Acinetobacter baumannii) [µg/mL] | Minimum inhibitory concentration (MIC), Ab ATCC 19606 (Acinetobacter baumannii) [µg/mL] | Minimum inhibitory concentration (MIC), Ab FADDI-AB034 (Acinetobacter baumannii) [µg/mL] | Minimum inhibitory concentration (MIC), Ec FADDI-EC001 (Enterobacter cloacae) [µg/mL] | Minimum inhibitory concentration (MIC), Ec FADDI-EC003 (Enterobacter cloacae) [µg/mL] | Minimum inhibitory concentration (MIC), Ec FADDI-EC006 (Enterobacter cloacae) [µg/mL] | Minimum inhibitory concentration (MIC), Pa ATCC 27853 (Pseudomonas aeruginosa) [µg/mL] | Minimum inhibitory concentration (MIC), Pa FADDI-PA022 (Pseudomonas aeruginosa) [µg/mL] | Minimum inhibitory concentration, Ab A ATCC 17978 (Acinetobacter baumannii) [µg/mL] | Minimum inhibitory concentration, Ab ATCC 19606 (Acinetobacter baumannii) [µg/mL] | Minimum inhibitory concentration, Ab FADDI-AB034 (Acinetobacter baumannii) [µg/mL] | Minimum inhibitory concentration, Ec FADDI-EC001 (Enterobacter cloacae) [µg/mL] | Minimum inhibitory concentration, Ec FADDI-EC003 (Enterobacter cloacae) [µg/mL] | Minimum inhibitory concentration, Ec FADDI-EC006 (Enterobacter cloacae) [µg/mL] | Minimum inhibitory concentration, Pa ATCC 27853 (Pseudomonas aeruginosa) [µg/mL] | Minimum inhibitory concentration, Pa FADDI-PA022 (Pseudomonas aeruginosa) [µg/mL] | Minimum inhibitory concentration, Pa FADDI-PA025 (Pseudomonas aeruginosa) [µg/mL] | other results
1 | CCCCCCCC(=O)N[C@@H](CCN)C(=O)N[C@H](C(=O)N[C@H](CO)C(=O)N[C@H]1CCNC(=O)[C@H]([C@@H](C)O)NC(=O)[C@H](CCN)NC(=O)[C@H](CCN)NC(=O)[C@H](C)NC(=O)[C@@H](CC(C)C)NC(=O)[C@H](CCN)NC1=O)[C@@H](C)O [Compound 2] (Octanoyl-[Dab]T[dS][Dab][Dab][dL]A[Dab][Dab]T; lactam 4-C) | 0.5 (≈ 0.454 µM) | 0.5 (≈ 0.454 µM) | 8 (≈ 7.27 µM) |  |  |  |  |  |  |  |  | 0.5 (≈ 0.454 µM) | 0.5 (≈ 0.454 µM) | 0.5 (≈ 0.454 µM) | <0.125 | <0.125 | 0.5 (≈ 0.454 µM) | 8 (≈ 7.27 µM) | 8 (≈ 7.27 µM) | >32 | 
2 | CCCCCCCC(=O)N[C@@H](CCN)C(=O)N[C@H](C(=O)N[C@H](CO)C(=O)N[C@H]1CCNC(=O)[C@H]([C@@H](C)O)NC(=O)[C@H](CCN)NC(=O)[C@H](CCN)NC(=O)[C@H]([C@@H](C)O)NC(=O)[C@@H](Cc2ccccc2)NC(=O)[C@H](CCN)NC1=O)[C@@H](C)O [Compound 3] (Octanoyl-[Dab]T[dS][Dab][Dab][dF]T[Dab][Dab]T; lactam 4-C) | 0.25 (≈ 0.215 µM) | <0.125 | 4 (≈ 3.44 µM) |  |  |  |  |  |  |  |  | <0.125 | 0.25 (≈ 0.215 µM) | <0.125 | 0.5 (≈ 0.429 µM) | <0.125 | 0.25 (≈ 0.215 µM) | 4 (≈ 3.44 µM) | 4 (≈ 3.44 µM) | >32 | 
3 | CCCCCCCC(=O)N[C@@H](CCN)C(=O)N[C@H](C(=O)N[C@H](CO)C(=O)N[C@H]1CCNC(=O)[C@H]([C@@H](C)O)NC(=O)[C@H](CCN)NC(=O)[C@H](CCN)NC(=O)[C@H](C(C)C)NC(=O)[C@@H](CC(C)C)NC(=O)[C@H](CCN)NC1=O)[C@@H](C)O [Compound 5] (Octanoyl-[Dab]T[dS][Dab][Dab][dL]V[Dab][Dab]T; lactam 4-C) | <0.125 | <0.125 | 2 (≈ 1.77 µM) |  |  |  |  |  |  |  |  | <0.125 | <0.125 | 0.25 (≈ 0.222 µM) | 0.25 (≈ 0.222 µM) | <0.125 | 0.25 (≈ 0.222 µM) | 2 (≈ 1.77 µM) | 4 (≈ 3.54 µM) | 16 (≈ 14.2 µM) | 

Further lines, with some results ahead:

Row | MIC (Acinetobacter baumannii) [µg/mL] | MIC (Klebsiella pneumoniae) [µg/mL] | MIC (Pseudomonas aeruginosa) [µg/mL] | Minimum inhibitory concentration (MIC), Ab ATCC 17978 (Acinetobacter baumannii) [µg/mL] | Minimum inhibitory concentration (MIC), Ab ATCC 19606 (Acinetobacter baumannii) [µg/mL] | Minimum inhibitory concentration (MIC), Ab FADDI-AB034 (Acinetobacter baumannii) [µg/mL] | Minimum inhibitory concentration (MIC), Ec FADDI-EC001 (Enterobacter cloacae) [µg/mL] | Minimum inhibitory concentration (MIC), Ec FADDI-EC003 (Enterobacter cloacae) [µg/mL] | Minimum inhibitory concentration (MIC), Ec FADDI-EC006 (Enterobacter cloacae) [µg/mL] | Minimum inhibitory concentration (MIC), Pa ATCC 27853 (Pseudomonas aeruginosa) [µg/mL] | Minimum inhibitory concentration (MIC), Pa FADDI-PA022 (Pseudomonas aeruginosa) [µg/mL] | SMILES | Minimum inhibitory concentration, Ab A ATCC 17978 (Acinetobacter baumannii) [µg/mL] | Minimum inhibitory concentration, Ab ATCC 19606 (Acinetobacter baumannii) [µg/mL] | Minimum inhibitory concentration, Ab FADDI-AB034 (Acinetobacter baumannii) [µg/mL] | Minimum inhibitory concentration, Ec FADDI-EC001 (Enterobacter cloacae) [µg/mL] | Minimum inhibitory concentration, Ec FADDI-EC003 (Enterobacter cloacae) [µg/mL] | Minimum inhibitory concentration, Ec FADDI-EC006 (Enterobacter cloacae) [µg/mL] | Minimum inhibitory concentration, Pa ATCC 27853 (Pseudomonas aeruginosa) [µg/mL] | Minimum inhibitory concentration, Pa FADDI-PA022 (Pseudomonas aeruginosa) [µg/mL] | Minimum inhibitory concentration, Pa FADDI-PA025 (Pseudomonas aeruginosa) [µg/mL] | other results
4 |  |  |  | 0.25 (≈ 0.212 µM) | 0.5 (≈ 0.425 µM) | 0.25 (≈ 0.212 µM) | <0.125 | <0.125 | <0.125 | 0.5 (≈ 0.425 µM) | 1 (≈ 0.849 µM) | CC[C@@H]1NC(=O)[C@@H](CC(C)C)NC(=O)[C@H](CCN)NC(=O)[C@@H](NC(=O)[C@H](CN)NC(=O)[C@@H](NC(=O)[C@H](CCN)NC(=O)c2ccc(C(F)(F)F)cc2F)[C@@H](C)O)CCNC(=O)[C@H]([C@@H](C)O)NC(=O)[C@H](CCN)NC(=O)[C@H](CCN)NC1=O [Compound 137] (X37-[Dab]T[Dap][Dab][Dab][dL][Abu][Dab][Dab]T; lactam 4-C) |  |  |  |  |  |  |  |  |  | Minimum inhibitory concentration (MIC), Pa FADDI-PA025 (Pseudomonas aeruginosa): 4 µg/mL (≈ 3.4 µM)
5 |  |  |  | 4 (≈ 3.41 µM) | 16 (≈ 13.6 µM) | 4 (≈ 3.41 µM) | 2 (≈ 1.7 µM) | 1 (≈ 0.852 µM) | 4 (≈ 3.41 µM) | 1 (≈ 0.852 µM) | 1 (≈ 0.852 µM) | CC[C@@H]1NC(=O)[C@@H](CC(C)C)NC(=O)[C@H](CCN)NC(=O)[C@@H](NC(=O)[C@H](CN)NC(=O)[C@@H](NC(=O)[C@H](CCCN)NC(=O)c2cccc(C(F)(F)F)c2)[C@@H](C)O)CCNC(=O)[C@H]([C@@H](C)O)NC(=O)[C@H](CCN)NC(=O)[C@H](CCN)NC1=O [Compound 141] ({Benzoyl(3-CF3)}-[Orn]T[Dap][Dab][Dab][dL][Abu][Dab][Dab]T; lactam 4-C) |  |  |  |  |  |  |  |  |  | Minimum inhibitory concentration (MIC), Pa FADDI-PA025 (Pseudomonas aeruginosa): 2 µg/mL (≈ 1.7 µM)
